Results on 2 compounds are retold here after patent US4481193A, “Des-proline vasopressin antagonists” (SmithKline Beckman Corporation, priority 1984, dated 1984).

The subject of one assay is hydropenic rat. In words: Hydropenic rat screen (anti-ADH activity in vivo). Conditions: estimated dose delivered ip which reduces Uosm from hydropenic levels to 300 mOsmoles/kg H2O; male rats. As for the experimental part: (§1) Antagonistic activity toward the natural antidiuretic hormone (anti-ADH activity) is determined, in vitro, in the medullary tissue of hog or human kidneys and, in vivo, in the hydropenic rat. The in vitro assay procedures for vasopressin stimulated adenylate cyclase activation or vasopression binding activity are described by F. Stassen et al., J. Pharmacology and Experimental Therapeutics, 223, 50-54 (1982).
The assay for anti-ADH activity is the hydropenic rat protocol is described below:
Food and water are removed from male rats approximately 18 hours prior to testing. Animals are housed 4 per metabolism cage. At 0 hour, the test compound is administered intraperitoneally to the test group and an equivalent volume of vehicle is administered to both control groups (fasted and non-fasted). Urine volume and osmolality are measured every hour for 4 hours. Test values are recorded as ml of urine excreted (cumulative), mEq/rat electrolyte excreted, mg/rat urea excreted, and osmolality in milli-Osmoles/kg H2 O. A tolerance test is used to determine significance. ED300 is defined as the dose of compound (μg/kg) required to lower urine osmolality to 300 m-Osmoles/kg.

Assay [1] concerns the target T1, vasopressin receptors (V2 -receptors) (Sus scrofa, UniProt P32307).
T1 construct: from tissue; host or cells: hog kidney medullary membranes
Kind of assay: 3H-vasopressin binding assay, hog kidney membranes. The note with it: competitive inhibition of 3H-vasopressin binding, KB = IC50/(1+L/KD), read-out: In Vitro (Pig) KB. As for the experimental part:
as §1
In the test procedure for binding assays, the amount of ^3 H-vasopressin bound in the absence and in the presence of an excess of vasopressin (7.5×10^-6 M) is measured in triplicate. These values represent total and non-specific binding, respectively. […] This is the average KD value determined on 3 preparations of hog kidney membranes.

Assay [2] concerns the target T2, vasopressin stimulated adenylate cyclase (Homo sapiens, UniProt P30518).
T2 construct: from tissue; host or cells: human kidney medullary membranes
In words: Vasopressin stimulated adenylate cyclase activity, human kidney medullary tissue. The assay is classed as biochemical. Conditions: read-out: In Vitro (Human) Ki. As for the experimental part:
as §1

Assay [3] has as its target T3, vasopressin stimulated adenylate cyclase (Sus scrofa, UniProt P32307).
T3 construct: from tissue; host or cells: hog kidney medullary membranes
In words: Vasopressin stimulated adenylate cyclase activity, hog kidney medullary membrane. The assay is classed as biochemical. The note with it: antagonism of vasopressin stimulated adenylate cyclase, read-out: In Vitro (Pig) Ki. As for the experimental part: as §1
In the test procedure for assay of adenylate cyclase activity, the amount of ^32 P/cAMP formed in the absence of medullary membrane is determined (blank). The blank value is substracted from all experimental data. The compound is tested for its effect on basal adenylate cyclase activity and/or on vasopressin stimulated activity. Each determination is carried out in triplicate. The Ka value is derived from a Lineweaver-Burkeplot. Rel. Vmax =(Vmax drug/Vmax vasopressin)×100. Ki =I/[Ka'/Ka)-1] where I is the concentration of the antagonist, and Ka' and Ka are the concentrations of vasopressin required to give half-maximal activity of adenylate cyclase in the presence and absence of antagonist, respectively.

pKi: −log10 of the molar value. *1 amine or outer side, *2 acyl side, *3 side chain or, on linkers, in order; H or OH if unused. Where a SMILES comes first, the peptide text is derived from it. Bridges are numbered along the chain shown (N, C = ends). [ ]: non-standard residue; d: D form. X1 = O=C(CC1(S[*:2])CCCCC1)[*:1]

T2 sequence (P30518 whole entry): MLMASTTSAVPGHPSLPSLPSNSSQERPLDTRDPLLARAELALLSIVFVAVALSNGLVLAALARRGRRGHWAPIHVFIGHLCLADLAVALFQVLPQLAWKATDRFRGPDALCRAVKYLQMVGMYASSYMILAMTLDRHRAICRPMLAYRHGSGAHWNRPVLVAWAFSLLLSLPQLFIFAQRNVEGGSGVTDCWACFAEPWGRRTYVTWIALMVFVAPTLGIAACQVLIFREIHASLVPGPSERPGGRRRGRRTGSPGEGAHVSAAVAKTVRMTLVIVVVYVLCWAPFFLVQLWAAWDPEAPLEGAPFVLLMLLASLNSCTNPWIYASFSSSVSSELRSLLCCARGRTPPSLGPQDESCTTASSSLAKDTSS
T3 sequence (P32307 whole entry): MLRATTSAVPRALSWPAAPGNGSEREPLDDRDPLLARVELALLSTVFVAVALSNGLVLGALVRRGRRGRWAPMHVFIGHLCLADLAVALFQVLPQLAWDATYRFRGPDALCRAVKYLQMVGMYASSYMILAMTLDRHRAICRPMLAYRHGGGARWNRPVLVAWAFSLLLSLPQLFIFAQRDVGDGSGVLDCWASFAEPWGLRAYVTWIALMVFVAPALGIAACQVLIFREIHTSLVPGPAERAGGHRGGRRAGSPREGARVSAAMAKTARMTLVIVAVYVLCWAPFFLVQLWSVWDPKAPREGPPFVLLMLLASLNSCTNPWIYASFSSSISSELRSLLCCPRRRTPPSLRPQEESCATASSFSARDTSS
T1 sequence (P32307 whole entry): as above

`CCOc1ccc(C[C@H]2NC(=O)CC3(CCCCC3)SSC[C@@H](C(=O)N3CCC[C@H]3C(=O)N[C@@H](CCCNC(=N)N)C(=O)NCC(N)=O)NC(=O)[C@H](CC(N)=O)NC(=O)[C@H](C(C)C)NC(=O)[C@H](Cc3ccccc3)NC2=O)cc1` [B, [mercapto-β,cyclopentamethylenepropionic acid)2-(O--ethylD-tyrosine)-4-valine-8-argininevasopressin] ([dY](Et)FVNCPRG-NH2; linker N-5 via X1 (inferred); C-terminus assumed): the “In Vivo (Rat) ED300” value in the assay with hydropenic rat was 0.011 mg/kg.

In general, pKi refers to −log10 of the Ki, conventionally taken in molar units. `CCOc1ccc(C[C@H]2NC(=O)CC3(CCCCC3)SSC[C@@H](C(=O)N[C@@H](CCCN=C(N)N)C(=O)NCC(N)=O)NC(=O)[C@H](CC(N)=O)NC(=O)[C@H](C(C)C)NC(=O)[C@H](Cc3ccccc3)NC2=O)cc1` [A] ([dY](Et)FVNCRG-NH2; linker N-5 via X1): the Kb in assay [1] is 17 nM. The figures for the pKi in assay [2] and in assay [3] were 8.01 and 8.57, respectively.
